# Assay results taken from US20160158258A1, “PREVENTION AND TREATMENT OF INFLAMMATORY CONDITIONS” (GLYCOREGIMMUNE, INC., priority 2014, published 2016).
# Experiments:
# [1] = system: type I NKT cells; sulfatide/CD1d-tetramer+ cells; conditions: after administration in vivo; cited from earlier work
# [2] = system: ConA-induced hepatitis; conditions: description, no example; cited from earlier work
# [3] = system: chronic experimental autoimmune encephalomyelitis (EAE); test: EAE, oral sulfatide; assay type: in vivo, B6 mice; conditions: oral 200 micrograms for 7 days, starting one day before disease induction
# Source text: However as shown in FIG. 6 oral treatment with sulfatide though inhibits disease initially when given orally but not very efficient. Without being limited by any theory, it is contemplated that sulfatide is not very stable in the gut, which is consistent with the observed low efficiency. With reference to FIG. 6, groups of B6 mice were orally treated with sulfatide (200 micrograms in 200 microliters in PBS) for 7 days, starting one day before the disease induction. Clinical paralysis was monitored daily and scored from 1 to 5. […] Without being limited by any theory, the observed similarity of both groups in consistent with instability of sulfatide in the gut.
# [4] = system: chronic and relapsing experimental autoimmune encephalomyelitis (EAE); test: chronic and relapsing EAE; assay type: in vivo, SJL mice
# Method: Groups of SJL mice were orally gavaged with miltefosine (1 mg in 200 microliters of 10% DMSO/PBS) or control (DMSO/PBS), twice a week as indicated by arrows. Clinical severity of disease was monitored daily as paralysis in both groups of mice from scale 1 to 5 and shown.
# [5] = system: hepatic ischemia and reperfusion injury; conditions: cited from earlier work
# [6] = system: liver damage caused by alcohol consumption; conditions: description, no example; cited from earlier work
# [7] = system: type I NKT cell; conditions: description, no example; also in the absence of antigen-presenting cells; cited from earlier work
# [8] = system: conventional MHC-restricted CD4+ T cells; conditions: description, no example; cited from earlier work
# [9] = system: alcoholic liver diseases (ALD); test: alcoholic liver disease, chronic plus binge EtOh feeding; assay type: in vivo, C57BL/6 mice
# Source text: Groups of C57BL/6 mice were fed liquid alcohol (EtOh) diet or isocaloric control (control) diet for 10 day either containing miltefosine (˜500 micrograms per day) or DMSO/PBS. On day 11, 9 hr after the binge (chronic plus binge feeding), accumulation and activation of type I NKT cells (alpha-GalCer/CD1d^−tetramer^+ cells) or neutrophils (Ly^−6 G^+ CD11b^+) were examined in liver. As shown in FIG. 4A and FIG. 4B, in comparison to the control diet group, type I NKT cells accumulate into liver in mice fed liquid chronic plus binge EtOh diet. Also as shown in FIG. 4C and FIG. 4D, type I NKT cells become activated (as examined by the expression of CD69 cell surface expression in alpha-GalCer/CD1d-tetrame^+ cells) accompanied by accumulation of neutrophils (Ly^−6 G^+ CD11b^+ cells) into liver. Accumulation of activated type I NKT cells and neutrophils leads to inflammatory cascade resulting in heaptocyte injury during ALD.
# [10] = molecular target: T1, CD1d (Mus musculus, UniProt P11609); test: plate-bound CD1d assay: binding to CD1d; conditions: concluded from plate-bound CD1d assay
# T1 sequence (P11609 19-297 limits assumed): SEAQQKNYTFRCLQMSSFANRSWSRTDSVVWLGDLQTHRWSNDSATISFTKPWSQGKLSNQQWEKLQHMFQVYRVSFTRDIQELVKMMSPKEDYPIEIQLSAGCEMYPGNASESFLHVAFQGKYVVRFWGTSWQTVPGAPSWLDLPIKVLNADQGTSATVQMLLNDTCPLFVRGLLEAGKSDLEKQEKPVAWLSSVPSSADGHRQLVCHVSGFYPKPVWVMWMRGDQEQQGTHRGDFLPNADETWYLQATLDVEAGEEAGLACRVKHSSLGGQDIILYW
# T1 sequence (P01887 21-119 partner): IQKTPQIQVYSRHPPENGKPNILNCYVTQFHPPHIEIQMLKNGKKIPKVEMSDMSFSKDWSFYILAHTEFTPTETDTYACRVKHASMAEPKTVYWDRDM
# Method: (§1) The CD1d protein coated 96-well plates were incubated with the indicated lipids for 6 hr, washed and a type II NKT cell Hy 19.3 was added (50,000 cells/well) and IL-2 measured 16 hr later in the supernatant. LSF, lysosulftatide; LPC, lysophosphatidylcholine.
# [11] = system: type I NKT cells; test: alpha-GalCer stimulation of splenocytes from orally treated mice; assay type: in vivo, B6 mice; conditions: 1 mg oral gavage daily for 7 days; splenocytes cultured 90 hrs; 10 ng/ml alpha-GalCer
# Method: Naïve B6 mice were treated every day for 7 days with DMSO (Control) or Miltefosine 1 mg (dissolved in DMSO and diluted into PBS), using oral gavage. Splenocytes were cultured in vitro for 90 hrs in the presence or absence of alpha-GalCer. Stimulation (as stimulation Index) and expansion of type I NKT cells (as FACS staining with alpha-GalCer/CD1d^−tetramer^+ cells) at 10 ng/ml of alpha-GalCer concentration is shown in both FIG. 2A and FIG. 2B.
# [12] = system: ConA-induced hepatitis; test: ConA-induced hepatitis; assay type: in vivo, BL/6 mice
# Method: Groups of BL/6 mice were either administered with DMSO/PBS or miltefosine 12 hr before ConA administration and liver injury was determined by H&E staining of liver sections and liver enzymes, such as ALT in serum examined 24 hr later (FIG. 3A and FIG. 3B). Data shown are representative of 2 independent experiments.
# [13] = system: type II NKT cell hybridoma, Hy19.3; test: plate-bound CD1d assay: IL-2 from type II NKT cell hybridoma; assay type: cell-based; conditions: CD1d coated plates incubated with lipid 6 hr; 50,000 cells/well; IL-2 measured 16 hr later
# Method: as §1
# [14] = system: liver mononuclear cells; test: flow cytometry of liver mononuclear cells after oral treatment; assay type: in vivo, SJL/J mice; conditions: 1 mg orally before and during disease; day 59
# Method: Groups of female SJL/J mice were administered orally with 1 mg of miltefosine as shown in the FIG. 2, before and during the course of disease. Mice were sacrificed on day 59.
# [15] = ~500 micrograms per day in EtOh diet 10 day, day 11, 9 hr after binge
molecule,measurement,setting,value
3′-sulfogalactosyl ceramide [sulfatide],in vitro proliferation of type I NKT cells in response to alpha-GalCer,[1],suppress in vitro proliferation of type I NKT cells
same,percentage of sulfatide/CD1d-tetramer+ cells with intracytoplasmic IFN-gamma staining,[1],increase the percentage of sulfatide/CD1d-tetramer+ cells with intracytoplasmic IFN-gamma staining
same,"protection against ConA-induced hepatitis (hepatocellular necrosis, serum ALT and AST)",[2],can protect against Concanavalin A (ConA)-induced hepatitis
same,duration of initial protection from clinical paralysis,[3],4 to 5 days
same,chronic and relapsing EAE,"[4]; SJL/J mice, route not stated",significant inhibition
same,secretion of IFN-gamma by hepatic type I NKT cells,"[5]; early phase of ischemia and reperfusion injury, vs untreated animals",significantly decreased
same,liver injury following ischemia/reperfusion,[5]; mice treated with sulfatide,significantly reduced
same,liver damage following excess alcohol consumption,[6],almost complete protection from liver damage
"CC1=C(/C=C/C(C)=C/C=C/C(C)=C/C(=O)O)C(C)(C)CCC1 [ATRA, all trans retinoic acid]","type I NKT cell effector function, including cytokine secretion",[7],inhibits type I NKT cell effector function
same,activity of conventional MHC-restricted CD4+ T cells that recognize protein antigens,[8],does not directly inhibit
same,liver damage following excess alcohol consumption,[6],significantly inhibits liver damage
CCCCCCCCCCCCCCCCOP(=O)([O-])OCC[N+](C)(C)C [miltefosine],liver injury,[9]; ~500 micrograms per day in EtOh diet,protection from liver injury
same,accumulation of type I NKT cells in liver,[9]; [15],inhibited accumulation of type I NKT cells
same,levels of activated (CD69+) type I NKT cells in liver,[9]; [15],reduced levels of activated (CD69^+) NKT cells
same,levels of neutrophils (Ly-6G+ CD11b+) in liver,[9]; [15],reduced levels of neutrophils
same,binding to CD1d molecules,[10],can bind to CD1d molecules
same,type I NKT cells proliferation and expansion in the presence of alpha-GalCer,[11],significant inhibition
same,serum levels of ALT,"[12]; given 12 hours before ConA, 24 hours later",reduced serum levels of ALT
same,liver injury following Con A injection,[12]; given 12 hr before ConA,significant inhibition of liver injury
same,"necrosis, H&E staining of liver sections",[12]; given 12 hr before ConA,decreased necrosis
same,"clinical severity of disease (paralysis, scale 1 to 5)",[4]; oral gavage 1 mg twice a week,can be treated with miltefosine
same,stimulation of type II NKT cell hybridoma Hy19.3 (IL-2 in the supernatant),[13],able to stimulate
same,"other CD4+ and CD8αβ+ T cells in liver, control vs. treated",[14],not different
same,regulatory CD8αα+ T cells in liver,[14],significantly increased
